The target of experiment [1] is T1, human CRTH2-Rluc (Homo sapiens, UniProt Q9Y5Y4).
T1 construct: expressed in transfected cells; host or cells: HEK293 cell clone stably expressing βarr2-GFP2 and CRTH2-Rluc
T1 sequence (Q9Y5Y4 1-395): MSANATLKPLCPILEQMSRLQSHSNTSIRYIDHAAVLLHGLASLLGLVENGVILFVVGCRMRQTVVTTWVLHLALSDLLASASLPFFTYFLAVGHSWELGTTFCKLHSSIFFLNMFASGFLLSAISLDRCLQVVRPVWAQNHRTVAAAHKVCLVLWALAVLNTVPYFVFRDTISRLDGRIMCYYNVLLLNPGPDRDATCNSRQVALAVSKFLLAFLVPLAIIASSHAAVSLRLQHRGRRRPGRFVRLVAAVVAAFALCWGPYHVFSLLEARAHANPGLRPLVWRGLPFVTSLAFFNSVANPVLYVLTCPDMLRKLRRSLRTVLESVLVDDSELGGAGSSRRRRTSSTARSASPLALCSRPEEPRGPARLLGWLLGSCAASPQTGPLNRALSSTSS
Briefly: Functional antagonist BRET assay (CRTH2-Rluc / GFP2-β-arrestin2 in HEK293 cells). The following applies: HEK293 cells stably expressing CRTH2-Rluc and GFP2-β-arr2, read-out: Antag. IC50. In kind it is cell-based. An excerpt: (§1) Generation/origin of the cDNA Constructs. The coding sequence of the human CRTH2 receptor (genbank accession no NM_004778) was amplified by PCR from a human hippocampus cDNA library and inserted into the pcDNA3.1(+) expression vector (invitrogen) via 5′ HindIII and 3′ EcoRI. To generate a CRTH2-Renilla luciferase (CRTH2-Rluc) fusion protein, the CRTH2 coding sequence without a STOP codon and Rluc were amplified, fused in frame by PCR and subcloned into the pcDNA3.1(+)Zeo expression vector (invitrogen). Human β-arrestin2 (β-arr2) N-terminally tagged with GFP^2 (βarr2-GFP^2) and Renilla luciferase were purchased from BioSignal Packard Inc, (Montreal, Canada). The sequence identity of the construct was verified by restriction endonuclease digests and sequencing in both directions on an ABI Prism (Applied Biosystems, Foster City, Calif.).
(§2) Cell Culture and Transfection. COS-7 cells were grown in Dulbecco's modified Eagle's medium (DMEM) 1885 supplemented with 10% fetal bovine serum, 100 units/ml penicillin, […], and kept at 37° C. in a 10% CO2 atmosphere. HEK293 cells were maintained in Minimum Essential medium (MEM) supplemented with 10% (v/v) heat inactivated fetal calf serum (HIFCS), 2 mM Glutamax™-I, 1% non essential amino acids (NEAA), 1% sodium pyruvate and 10 μg/ml gentamicin. For binding experiments, COS7 cells were transiently transfected with the CRTH2 receptor using a calcium phosphate-DNAcoprecipitation method with the addition of chloroquine (as described by Holst et al., 2001↓). To perform the functional Bioluminescence Resonance Energy Transfer (BRET) assays, a HEK293 cell clone stably expressing Parr2-GFP^2 and CRTH2-Rluc was generated (CRTH2-HEK293 cells).
BRET assay. Functional BRET assays were performed on HEK293 cells stably expressing human CRTH2-Rluc and GFP^2-β-arr2. Prior to their use in the BRET assay cells were detached and re-suspended in D-PBS with 1000 mg/L L-Glucose at a density of 2×10^6 cells/mL. DeepBlueC™ was diluted to 50 μM in D-PBS with 1000 mg/L L-Glucose (light sensitive). 100 μL of cell suspension was transferred to wells in a 96-well microplate (white OptiPlate) and placed in the Mithras LB 940 instrument (BERTHOLD TECHNOLOGIES, Bad Wildbad, Germany). 12 μL/well agonist was then injected by injector 1 and 10 μL/well DeepBlueC™ was injected simultaneously by injector 2. Five seconds after the injections the light output from the well was measured sequentially at 400 nm and 515 nm, and the BRET signal (mBRET ratio) was calculated by the ratio of the fluorescence emitted by GFP^2-β-arr2 (515 nm) over the light emitted by the receptor-Rluc (400 nm). Antagonists were added before placing the microplates into the Mithras LB 940 and allowed to incubate for 15 minutes prior to the addition of agonist and DeepBlueC™. Compounds were dissolved in DMSO and the final DMSO concentration was kept constant at 1% in the assay.
(§3) Curve analysis was performed with the GraphPadPrism software 3.0 (Graphpad Prism Inc., San Diego, USA) and IC50 values were calculated as a measure of the antagonistic potencies.
(Bioluminescence resonance energy transfer reports proximity on the nanometre scale.)

Experiment [2] concerns the target T2, human CRTH2 receptor (Homo sapiens, UniProt Q9Y5Y4).
T2 construct: expressed in transfected cells; host or cells: COS-7 cells, transient transfection (calcium phosphate)
T2 sequence (Q9Y5Y4 1-395): T1 sequence (Q9Y5Y4 1-395)
Briefly: Receptor binding assay, competition with [3H]PGD2 on whole transfected cells. The following applies: competition with 0.1 nM [3H]PGD2, whole cells expressing CRTH2.
From the text: as §1, §2
Binding assay. 24 h after transfection COS-7 cells were seeded into 96 well plates at a density of 30.000 cells/well. Competition binding experiments on whole cells were then performed about 18-24 h later using 0.1 nM [^3H]PGD2 (NEN, 172 Ci/mmol) in a binding buffer consisting of HBSS (GIBCO) and 10 mM HEPES. Competing ligands were diluted in DMSO which was kept constant at 1% (v/v) of the final incubation volume. Total and nonspecific binding were determined in the absence and presence of 10 μM PGD2. Binding reactions were routinely conducted for 3 h at 4° C. and terminated by 2 washes (100 μl each) with ice cold binding buffer. Radioactivity was determined by liquid scintillation counting in a TOPCOUNTER (Packard) following over night incubation in Microscint 20. Stable HEK293 cells were seeded at a density of 30.000 cells/well 18-24 h prior to the binding assay which was performed essentially as described for COS7 cells above. Determinations were made in duplicates.
as §3

Among the data in patent US20080312220A1, “Oxadiazole Derivatives with Crth2 Receptor Activity” (priority 2005, published 2008) are IC50 values, retold here.

The IC50 is the concentration at which inhibition is half-maximal. With `O=C(O)COc1ccc(Br)cc1-c1nc(C2(c3ccccc3)CCC2)no1` [Example D14, {4-Bromo-2-[3-(1-phenyl-cyclobutyl)-[1,2,4]oxadiazol-5-yl]-phenoxy}-acetic acid], the IC50 in experiment [1] and in experiment [2] was under 500 nM throughout.
